Read-outs that look alike come from different tables or passages of the source.
What was measured:
JAK2 = target: T1, JAK2 (Homo sapiens, UniProt O60674); test: Recombinant Human JAK2 Kinase Assay (TRF); assay type: biochemical; conditions: read-out: JAK2 Potency
T1 construct: host or cells: baculovirus expression system
Method in brief: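 TRF read-out: Eu-N1 PY100 anti-phosphotyrosine antibody detects product. Enzyme is baculovirus-expressed JAK2 at 15 ng/ml; substrate is a biotinyl 15-mer peptide bound to Neutravidin-coated wells. Buffer 20 mM HEPES pH 7.2, 0.2 μM ATP, 1 mM MnCl2, 0.1% BSA, 2.5% DMSO final; 20 min, RT.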

ALK = target: T2, ALK (Homo sapiens, UniProt Q9UM73); test: ALK Kinase Assay (ELISA/TRF, PLC-γ substrate); assay type: biochemical; conditions: read-out: ALK Potency
T2 construct: host or cells: baculovirus expression system
Method in brief: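 IC50 values derive from percent inhibition plotted against log10 compound concentration and fitted to a variable-slope sigmoidal equation. The underlying reaction used 30 ng/ml ALK acting on immobilized PLC-γ (10 μg/mL in TBS) at 37° C for 15 minutes, read with Eu-N1 PT66 antibody.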

[1] = JAK2 kinase inhibition, 0.2 μM ATP
[2] = ALK kinase inhibition, 1 μM ATP

T2 sequence (Q9UM73 19-1620): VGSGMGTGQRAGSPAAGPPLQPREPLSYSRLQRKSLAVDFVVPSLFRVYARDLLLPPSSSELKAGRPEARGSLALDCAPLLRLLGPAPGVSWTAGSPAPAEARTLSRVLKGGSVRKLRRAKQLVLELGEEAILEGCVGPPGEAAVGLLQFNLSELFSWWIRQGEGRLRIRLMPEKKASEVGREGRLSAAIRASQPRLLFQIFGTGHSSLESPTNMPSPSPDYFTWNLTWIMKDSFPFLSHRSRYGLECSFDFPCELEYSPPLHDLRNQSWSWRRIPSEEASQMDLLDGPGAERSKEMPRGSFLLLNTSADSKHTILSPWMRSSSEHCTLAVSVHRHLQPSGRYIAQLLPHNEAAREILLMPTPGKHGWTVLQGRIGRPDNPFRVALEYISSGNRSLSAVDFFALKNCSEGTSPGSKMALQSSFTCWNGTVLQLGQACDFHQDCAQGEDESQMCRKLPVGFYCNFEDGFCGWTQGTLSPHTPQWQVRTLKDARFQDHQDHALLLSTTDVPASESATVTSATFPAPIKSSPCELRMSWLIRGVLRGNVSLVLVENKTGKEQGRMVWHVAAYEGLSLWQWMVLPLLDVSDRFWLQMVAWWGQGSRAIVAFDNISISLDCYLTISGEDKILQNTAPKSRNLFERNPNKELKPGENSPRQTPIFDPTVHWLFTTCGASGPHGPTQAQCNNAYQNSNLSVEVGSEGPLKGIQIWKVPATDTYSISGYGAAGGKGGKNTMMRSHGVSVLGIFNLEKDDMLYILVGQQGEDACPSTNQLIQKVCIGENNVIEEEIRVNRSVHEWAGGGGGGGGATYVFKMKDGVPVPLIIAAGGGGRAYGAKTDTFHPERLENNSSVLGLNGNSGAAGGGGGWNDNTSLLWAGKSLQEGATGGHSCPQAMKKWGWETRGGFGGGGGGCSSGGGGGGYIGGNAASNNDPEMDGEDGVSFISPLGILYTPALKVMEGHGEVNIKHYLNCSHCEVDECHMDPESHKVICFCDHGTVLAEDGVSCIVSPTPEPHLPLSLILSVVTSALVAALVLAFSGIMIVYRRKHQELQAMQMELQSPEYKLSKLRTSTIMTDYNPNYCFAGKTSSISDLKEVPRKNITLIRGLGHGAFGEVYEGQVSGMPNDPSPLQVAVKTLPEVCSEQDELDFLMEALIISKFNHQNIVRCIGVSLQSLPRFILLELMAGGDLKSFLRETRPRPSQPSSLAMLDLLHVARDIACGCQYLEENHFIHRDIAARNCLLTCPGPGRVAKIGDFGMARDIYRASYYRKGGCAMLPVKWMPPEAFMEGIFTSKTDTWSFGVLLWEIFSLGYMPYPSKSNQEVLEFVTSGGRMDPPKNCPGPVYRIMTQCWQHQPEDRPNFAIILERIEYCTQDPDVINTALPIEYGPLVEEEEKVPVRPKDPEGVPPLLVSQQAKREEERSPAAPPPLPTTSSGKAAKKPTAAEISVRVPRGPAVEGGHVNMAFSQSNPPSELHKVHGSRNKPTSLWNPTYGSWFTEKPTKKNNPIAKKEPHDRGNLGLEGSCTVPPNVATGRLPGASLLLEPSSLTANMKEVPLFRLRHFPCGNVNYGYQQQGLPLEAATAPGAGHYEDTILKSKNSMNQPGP
T1 sequence (O60674 whole entry): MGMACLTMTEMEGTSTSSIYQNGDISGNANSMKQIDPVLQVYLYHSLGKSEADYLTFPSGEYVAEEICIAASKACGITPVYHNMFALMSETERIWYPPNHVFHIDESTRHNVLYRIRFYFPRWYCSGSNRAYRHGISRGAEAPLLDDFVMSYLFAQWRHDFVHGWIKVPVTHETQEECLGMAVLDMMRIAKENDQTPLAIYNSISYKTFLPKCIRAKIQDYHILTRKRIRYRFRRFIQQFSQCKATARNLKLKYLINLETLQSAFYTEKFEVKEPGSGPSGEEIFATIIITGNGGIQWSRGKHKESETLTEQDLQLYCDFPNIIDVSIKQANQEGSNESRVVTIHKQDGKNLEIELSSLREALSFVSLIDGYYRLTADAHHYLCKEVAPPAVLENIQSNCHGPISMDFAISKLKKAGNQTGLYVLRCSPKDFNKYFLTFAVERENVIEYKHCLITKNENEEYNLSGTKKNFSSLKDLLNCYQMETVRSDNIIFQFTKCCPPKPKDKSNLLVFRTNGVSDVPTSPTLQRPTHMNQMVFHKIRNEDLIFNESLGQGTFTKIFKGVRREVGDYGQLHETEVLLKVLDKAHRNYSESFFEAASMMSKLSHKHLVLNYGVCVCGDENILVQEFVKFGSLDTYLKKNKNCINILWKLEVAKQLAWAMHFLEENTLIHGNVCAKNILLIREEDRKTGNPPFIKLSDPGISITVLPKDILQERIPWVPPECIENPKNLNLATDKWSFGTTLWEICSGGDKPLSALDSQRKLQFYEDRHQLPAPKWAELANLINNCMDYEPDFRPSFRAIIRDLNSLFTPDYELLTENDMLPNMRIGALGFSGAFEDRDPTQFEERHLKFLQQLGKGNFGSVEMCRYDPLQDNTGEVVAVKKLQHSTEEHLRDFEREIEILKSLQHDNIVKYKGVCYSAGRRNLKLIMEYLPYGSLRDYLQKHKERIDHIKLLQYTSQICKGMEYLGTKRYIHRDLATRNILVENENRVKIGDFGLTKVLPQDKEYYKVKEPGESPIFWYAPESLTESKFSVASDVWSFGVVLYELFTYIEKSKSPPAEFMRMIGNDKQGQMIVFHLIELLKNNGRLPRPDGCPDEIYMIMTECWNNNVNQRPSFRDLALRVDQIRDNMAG

Row | SMILES | IC50 (JAK2; [1]) [nM] | IC50 (ALK; [2]) [nM] | IC50 (JAK2; JAK2 Kinase Inhibition) [nM] | IC50 (ALK; ALK Kinase Inhibition) [nM]
1 | COC[C@H](O)CN1CCN(Cc2ccc(Nc3ncc4ccc(-c5ccccc5N(C)S(C)(=O)=O)n4n3)c(OC)c2)CC1 [Example 1225, N-[2-(2-{4-[4-((R)-2-Hydroxy-3-methoxy-propyl)-piperazin-1-ylmethyl]-2-methoxy-phenylamino}-pyrrolo[2,1-f][1,2,4]triazin-7-yl)-phenyl]-N-methyl-methanesulfonamide] | 1000 to 10000 | < 100 |  | 
2 | CN(C)C(=O)CN1CCc2ccc(Nc3ncc4ccc(Br)n4n3)cc2CC1 [Example 1574] |  |  | < 100 | 1000 to 10000
3 | CN(c1ccccc1-c1ccc2cnc(Nc3ccc(C4CCN(CCO)CC4)cc3)nn12)S(C)(=O)=O [Example 669, N-[2-(2-{4-[1-(2-Hydroxy-ethyl)-piperidin-4-yl]-phenylamino}-pyrrolo[2,1-f][1,2,4]triazin-7-yl)-phenyl]-N-methyl-methanesulfonamide] | < 100 | < 100 |  | 
4 | COc1ccccc1-c1ccc2cnc(Nc3ccc(C4CCN(C[C@H](O)CO)CC4)cc3)nn12 [Example 1125, (S)-3-(4-{4-[7-(2-Methoxy-phenyl)-pyrrolo[2,1-f][1,2,4]triazin-2-ylamino]-phenyl}-piperidin-1-yl)-propane-1,2-diol] | < 100 | < 100 |  | 
5 | CC(C)(C)NS(=O)(=O)c1cccc(-c2ccc3cnc(Nc4ccc5nc(CO)[nH]c5c4)nn23)c1 [Example 1066, N-tert-Butyl-3-[2-(2-hydroxymethyl-3H-benzoimidazol-5-ylamino)-pyrrolo[2,1-f][1,2,4]triazin-7-yl]-benzenesulfonamide] | < 100 | 1000 to 10000 |  | 
6 | COc1cc(C2(C#N)CCC(O)CC2)ccc1Nc1ncc2ccc(-c3ccccc3N(C)S(C)(=O)=O)n2n1 (centres unmarked) [Example 1253, N-(2-{2-[4-(1-Cyano-4-hydroxy-cyclohexyl)-2-methoxy-phenylamino]-pyrrolo[2,1-f][1,2,4]triazin-7-yl}-phenyl)-N-methyl-methanesulfonamide] | 100 to 1000 | < 100 |  | 
7 | COc1cc(C2CCN(C[C@H](O)C(F)(F)F)CC2)ccc1Nc1ncc2ccc(-c3ccccc3N(C)S(C)(=O)=O)n2n1 [Example 804, N-[2-(2-{2-Methoxy-4-[1-((S)-3,3,3-trifluoro-2-hydroxy-propyl)-piperidin-4-yl]-phenylamino}-pyrrolo[2,1-f][1,2,4]triazin-7-yl)-phenyl]-N-methyl-methanesulfonamide] | 100 to 1000 | < 100 |  | 
8 | CN(c1ccccc1-c1ccc2cnc(Nc3ccn(CCN4CCOCC4)n3)nn12)S(C)(=O)=O [Example 1186, N-Methyl-N-(2-{2-[1-(2-morpholin-4-yl-ethyl)-1H-pyrazol-3-ylamino]-pyrrolo[2,1-f][1,2,4]triazin-7-yl}-phenyl)-methanesulfonamide] | < 100 | 100 to 1000 |  | 
9 | COc1cc([C@@H]2CCN(CC(N)=O)C[C@@H]2O)ccc1Nc1ncc2ccc(-c3ccccc3N(C)S(C)(=O)=O)n2n1 (racemic) [Example 842, (±)-2-[(3R,4S)-3-Hydroxy-4-(4-{7-[2-(methanesulfonyl-methyl-amino)-phenyl]-pyrrolo[2,1-f][1,2,4]triazin-2-ylamino}-3-methoxy-phenyl)-piperidin-1-yl]-acetamide] | 100 to 1000 | < 100 |  | 
10 | COc1ccc(-c2ccc3cnc(Nc4ccc5c(c4)NC(=O)CC5)nn23)cn1 [Example 979, 7-[7-(6-Methoxy-pyridin-3-yl)-pyrrolo[2,1-f][1,2,4]triazin-2-ylamino]-3,4-dihydro-1H-quinolin-2-one] | < 100 | 1000 to 10000 |  | 
11 | COc1ccccc1-c1ccc2cnc(Nc3ccn(CC(=O)N4CCOCC4)n3)nn12 [Example 1111, 2-{3-[7-(2-Methoxy-phenyl)-pyrrolo[2,1-f][1,2,4]triazin-2-ylamino]-pyrazol-1-yl}-1-morpholin-4-yl-ethanone] | < 100 | 100 to 1000 |  | 
12 | CN(c1ccccc1-c1ccc2cnc(Nc3ccc4nn(CCN5CCOCC5)cc4c3)nn12)S(C)(=O)=O [Example 1343, N-Methyl-N-(2-{2-[2-(2-morpholin-4-yl-ethyl)-2H-indazol-5-ylamino]-pyrrolo[2,1-f][1,2,4]triazin-7-yl}-phenyl)-methanesulfonamide] | < 100 | < 100 |  | 
13 | Cn1ccc(-c2ccc3cnc(Nc4ccc(C5CCN(CC(N)=O)CC5)cc4)nn23)n1 [Example 955] | < 100 | 100 to 1000 |  | 
14 | COc1cc(N2CCC(N3CCOCC3)CC2)ccc1Nc1ncc2ccc(-c3cccc4c3OCCO4)n2n1 [Example 546, [7-(2,3-Dihydro-1,4-benzodioxin-5-yl)-pyrrolo[2,1-f][1,2,4]triazin-2-yl]-[2-methoxy-4-(4-morpholin-4-yl-piperidin-1-yl)-phenyl]-amine] | < 100 | < 100 |  | 

The next lines start with the values.

Row | IC50 (JAK2; [1]) [nM] | IC50 (ALK; [2]) [nM] | IC50 (JAK2; JAK2 Kinase Inhibition) [nM] | IC50 (ALK; ALK Kinase Inhibition) [nM] | SMILES
15 | < 100 | 100 to 1000 |  |  | CC(C)(C)NS(=O)(=O)c1cccc(-c2ccc3cnc(Nc4ccc5c(c4)CN(CC(N)=O)C5)nn23)c1 [Example 927, 2-{5-[7-(3-tert-Butylsulfamoyl-phenyl)-pyrrolo[2,1-f][1,2,4]triazin-2-ylamino]-1,3-dihydro-isoindol-2-yl}-acetamide]
16 | < 100 | 100 to 1000 |  |  | CN(c1ccccc1-c1ccc2cnc(Nc3ccc(N4CCC(O)CC4)cc3)nn12)S(C)(=O)=O [Example 635, N-(2-{2-[4-(4-Hydroxy-piperidin-1-yl)-phenylamino]pyrrolo[2,1-f][1,2,4]triazin-7-yl}phenyl)-N-methylmethanesulfonamide]
17 | < 100 | 100 to 1000 |  |  | CN1C(=O)COc2cc(Nc3ncc4ccc(-c5cccc(NS(C)(=O)=O)c5)n4n3)ccc21 [Example 638, N-{3-[2-(4-Methyl-3-oxo-3,4-dihydro-2H-benzo[1,4]oxazin-7-ylamino)-pyrrolo[2,1-f][1,2,4]triazin-7-yl]-phenyl}methanesulfonamide]
18 |  |  | < 100 | < 100 | COc1ccc(Cl)cc1-c1ccc2cnc(Nc3ccc(CN4CCN(C)CC4)cc3)nn12 [Example 354, [7-(5-Chloro-2-methoxy-phenyl)-pyrrolo[2,1-f][1,2,4]triazin-2-yl]-[4-(4-methyl-piperazin-1-ylmethyl)-phenyl]-amine]
19 | 100 to 1000 | < 100 |  |  | COc1cc(C2CCN(C)CC2)ccc1Nc1ncc2ccc(-c3cccc(S(=O)(=O)NC4CC4)c3)n2n1 [Example 696]
20 |  |  | < 100 | > 10000 | CS(=O)(=O)c1ccc(-c2ccc3cnc(Nc4ccc(N5CCOCC5)c(F)c4)nn23)cc1 [Example 189, (3-Fluoro-4-morpholin-4-yl-phenyl)-[7-(4-methanesulfonyl-phenyl)-pyrrolo[2,1-f][1,2,4]triazin-2-yl]-amine]
21 |  |  | < 100 | 1000 to 10000 | CC(=O)Nc1cccc(Nc2ncc3ccc(-c4cccc(N5CCCS5(=O)=O)c4)n3n2)c1 [Example 1508, N-[3-({7-[3-(1,1-Dioxido-1,2-thiazolidin-2-yl)phenyl]pyrrolo[2,1-f][1,2,4]triazin-2-yl}amino)phenyl]acetamide]
22 | < 100 | > 10000 |  |  | Cc1nc2ccc(Nc3ncc4ccc(-c5cccc(S(=O)(=O)NC(C)(C)C)c5)n4n3)cc2s1 [Example 572, N-tert-Butyl-3-[2-(2-methyl-benzothiazol-6-ylamino)-pyrrolo[2,1-f][1,2,4]triazin-7-yl]-benzenesulfonamide]
23 |  |  | < 100 | 100 to 1000 | CN1CCN(c2ccc(Nc3ncc4ccc(-c5ccccc5[S+](C)[O-])n4n3)cc2)CC1 (centres unmarked) [Example 404, [7-(2-Methanesulfinyl-phenyl)-pyrrolo[2,1-f][1,2,4]triazin-2-yl]-[4-(4-methyl-piperazin-1-yl)-phenyl]-amine]
24 |  |  | < 100 | 100 to 1000 | C[C@H](O)CN1CCC(c2ccc(Nc3ncc4ccc(-c5cccc(S(C)(=O)=O)c5)n4n3)cc2)CC1 [Example 1431, (S)-1-(4-{4-[7-(3-Methanesulfonyl-phenyl)-pyrrolo[2,1-f][1,2,4]triazin-2-ylamino]-phenyl}-piperidin-1-yl)-propan-2-ol]
25 | 100 to 1000 | 100 to 1000 |  |  | COc1cc(N2CCN(C[C@H](C)O)CC2)ccc1Nc1ncc2ccc(-c3ccccc3[S+](C)[O-])n2n1 (stereo partly drawn) [Example 545, (S)-1-(4-{4-[7-(2-Methanesulfinyl-phenyl)-pyrrolo[2,1-f][1,2,4]triazin-2-ylamino]-3-methoxy-phenyl}-piperazin-1-yl)-propan-2-ol]
26 |  |  | < 100 | 100 to 1000 | CN(c1ccccc1-c1ccc2cnc(Nc3ccc(CN4CCCC4)cc3)nn12)S(C)(=O)=O [Example 1428, N-Methyl-N-{2-[2-(4-pyrrolidin-1-ylmethyl-phenylamino)-pyrrolo[2,1-f][1,2,4]triazin-7-yl]-phenyl}-methane sulfonamide]
27 |  |  | < 100 | 100 to 1000 | CN1CCN(c2cccc(Nc3ncc4ccc(-c5cccc(N6CCCS6(=O)=O)c5)n4n3)c2)CC1 [Example 1509, 7-[3-(1,1-Dioxido-1,2-thiazolidin-2-yl)phenyl]-N-[3-(4-methylpiperazin-1-yl)phenyl]pyrrolo[2,1-f][1,2,4]triazin-2-amine]
28 |  |  | < 100 | 100 to 1000 | Cc1cc(-c2ccc(S(C)(=O)=O)cc2)n2nc(Nc3ccc(N4CCN(C)CC4)cc3)ncc12 [Example 108, [7-(4-Methanesulfonyl-phenyl)-5-methyl-pyrrolo[2,1-f][1,2,4]triazin-2-yl]-[4-(4-methyl-piperazin-1-yl)-phenyl]-amine]

Source: patent US8471005B2 (Cephalon, Inc., priority 2008, dated 2013)
